One data set has as its system MKN-74. The data set can be described thus: MTT growth assay. In kind it is cell-based, human. As to conditions: 10 μg/ml berberine. For orientation: Tetrazolium dyes change colour on reduction, which living cells bring about.
The conditions of data set [1]: cited from earlier work.
The test system of the next data set is HepG2 hepatoma cells. Conditions: continuous exposure, 1 to 50 μM; cited from earlier work.
The conditions of data set [2]: human, in vivo. The protocol: Pharmacokinetic studies (PK). Bloods for pharmacokinetic studies (PK) will be performed on days 1, 2, 8, 15 and 29 of treatment. Repeated bloods for PK will be drawn on day #1 only, before the daily dose (time=0), 1 hour after, and 2,4, 6, 8 and 24 hours after the first dose of huanglian. On all other days, a single PK blood sample will be drawn, to measure steady state levels of the drug. For these studies 10 ml of heparinized blood (green stopper vacutainer tube) will be collected. Plasma samples (PK) will be sent for pharmacokinetic measurements of huanglian peaks.
Pharmacokinetic (PK) and surrogate marker studies: Since berberine represents approximately 50% of the herb, PK measurements were being conducted of berberine by HPLC. However, only very low levels of berberine (<50 ng/ml) have been detected in the plasma of any patient on the study. Also being tested is plasma collected from patients on day #15 of therapy to determine if the patient's own plasma will inhibit cancer cell growth of the gastric cancer cell line MKN-74 ex vivo, as determined by SRB assays. For these studies, the patient's plasma is concentrated and the MKN-74 cells are exposed to the patient's own plasma for either 2 (II) or 4 (IV) days before the tumor cells are assayed for growth inhibition. As shown for the patient treated in cohort 3 (see graph below), the patient's own pretreatment plasma (day 0) was capable of inhibiting MKN-74 cell growth, even though the patient had been off all chemotherapy for at least 4 weeks. Three separate samples were then drawn on day 15 of treatment at 8:30 AM, 9:30 AM, and 12:30 PM. […] The last lanes show the positive control of media “spiked” with huanglian (HL) at a concentration of 20 μg/ml and exposed to MKN-74 cells for both 2 and 4 days. This degree of growth suppression confirms the activity of the herb from the capsules.

For data set [3] the following is noted: cited from earlier work. The source holds these as a separate data set.
The nature of data set [4]: Metabolism by human liver S9 microsomes, HPLC/UV. In kind it is in vitro ADME. As to conditions: extract 3 μ/ml, S9 1 mg/ml with NADPH. The protocol: Since oral drugs are metabolised by a “first-pass” through the liver, we also elected to determine whether huanglian would be metabolised in vitro by human liver S9 microsomes (Gentest, MA). This assay creates metabolites of a drug that are equivalent to those formed on a “first-pass” through the liver. For these studies, the huanglian extract, at a final concentration of 3 μ/ml, was exposed to human liver S9 microsomes at 1 mg/ml with NADPH. The microsomal extracts obtained in this assay were then analyzed by HPLC and UV spectroscopy.

The conditions of data set [5]: dogs; cited from earlier work.
In a further data set the test system is MKN-74 cells. Description: Flow cytometry with MPM-2 labeling after nocodazole synchronisation. In kind it is cell-based, human. The text has this: Activation of cyclin B1 associated cdc2 kinase by mitotic inhibitors including paclitaxel induces an increased accumulation of cells into the M phase of the cell cycle (12). Thus, a decrease in cyclin B1 associated kinase activity should prevent cells from entering M and results in an accumulation of cells in G2. It should also force cells in M to exit M and continue to cell cycle. Experiments were designed to test this in the MKN-74 cells by flow cytometry and labeling of cells with the MPM-2 antibody which identifies cells in mitosis. This is difficult to assess in asynchronous cells. So as to better document accumulation of cell in G2, experiments were designed to first synchronise the cells with nocodazole in the M phase (e.g. mitotic block).
(In general: A flow cytometer gives signals particle by particle.)

Structures are written as SMILES.

For the compound `COc1ccc2cc3[n+](cc2c1OC)CCc1cc2c(cc1-3)OCO2` [berberine], in the data set on MKN-74, the “inhibition of cell proliferation” value was “not able to inhibit cell proliferation to the same degree as either the huanglian or its metabolites”. Also, in data set [1] (12 patients), the facial flushing is 2 patients and the transient nausea is 2 patients. Besides, in data set [1] (after berberine, returned to baseline after 24 hours), the QTc interval entry is on record as “consistently elevated in all 12 patients”. Besides, in data set [1] (i.v. 0.2 mg/kg/min over 30 minutes), the hemodynamic effects entry is “decrease in pulmonary and systemic vascular resistance and an increase in cardiac index and ejection fraction”. For the same compound, in data set [1] (within 1-20 hours of the infusion), the “ventricular tachycardia with torsades de pointes morphology, patients” value is “Four of 12”. The tumor cell growth result in the data set with HepG2 hepatoma cells is “inhibits tumor cell growth in a dose-dependent manner”. Moreover, in data set [2], the “Plasma B” value was in the range of 0 to 0.024 µg/mL, the “berberine in plasma by HPLC” value was “non-measurable by HPLC” and the “berberine level in plasma” value is < 50 ng/mL. For the same compound, in data set [3] (berberine plasma concentrations >0.11 mg/L), the “clinical effect at higher plasma concentration” value was “more significant increase in LVEF and decrease in the frequency and complexity of ventricular premature beats”. Also, the side effects entry in data set [3] (by mouth, 1.2 gm/d for two weeks, 56 patients) is given as “no side effects or arrythmogenesis”. The “change of HPLC peaks after liver microsome treatment” value in data set [4] is “decreased only slightly”. Further, the cardiovascular effects result in data set [5] is “positive inotropic effects and lower peripheral vascular resistance”.

Turning to `COC(=O)Nc1nc2ccc(C(=O)c3cccs3)cc2[nH]1` [nocodazole], the “cells remaining in M” value in the data set with MKN-74 cells (nocodazole for 12 hours (NOC12)) is 41%; with MKN-74 cells (nocodazole, then drug free medium 24 hours (NOC12→(−)24)), 16%.
